pIC50: −log10 of the molar value. Bridge positions count the residues as written; N and C are the ends. Peptide text beside a SMILES is read from it.
How the values were obtained:
[1] = system: avian influenza virus H9N2; format: cell-based
AIV H9N2 = system: AIV H9N2; parameters: species or system avian influenza virus H9N2; conditions: in vivo
Streptavidin = Streptavidin (Streptomyces avidinii, UniProt P22629); format: binding
[2] = target: avian influenza virus (AIV) subtype H9N2, purified whole virus particles; assay: cell-based or functional assay

Chain of Streptavidin (P22629 25-183, species assumed): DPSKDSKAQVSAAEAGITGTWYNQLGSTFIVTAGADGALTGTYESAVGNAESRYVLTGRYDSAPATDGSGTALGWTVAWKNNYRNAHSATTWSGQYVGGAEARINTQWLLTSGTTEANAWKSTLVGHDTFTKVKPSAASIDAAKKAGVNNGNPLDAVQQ

Row | Molecule | Agglutination of RBC (+AIV 32 HAU; 50 μl) [1] | Agglutination of RBC (−AIV 32 HAU; 50 μl) [1] | AIV titer in the allantoic fluid (haemagglutination titer) (AIV H9N2) | Frequency of sequences (%) (Streptavidin) | also measured
1 | C[C@@H](O)[C@@H]1NC(=O)[C@H](CCCCN)NC(=O)[C@H](CO)NC(=O)[C@H](CCCNC(=N)N)NC(=O)[C@H](Cc2ccccc2)NC(=O)[C@H](CC(=O)O)NC(=O)[C@H](CC(N)=O)NC(=O)[C@@H](N)CSSC[C@@H](C(=O)O)NC1=O [CNDFRSKTC] (H-CNDFRSKTC-OH; disulfide 1-9 (inferred); N-terminus and C-terminus assumed) | No and Yes | No | reduced the AIV titer |  | pIC50 (AIV H9N2; read-out: IC50, inhibition of propagation of AIV H9N2): > 4.00
2 | GLYNHPQ |  |  |  | 27 | 
3 | HPQFLSL |  |  |  | 55 | 
4 | NDFRSKT | No and Yes | No | reduced the AIV titer |  | 
5 | synthetic linear peptide NDFRSKT |  |  |  |  | IC50 [2]: < 100 µM
